Data published in US10183919B2 (priority 2014, dated 2019).
Structures can show the parent of a compound that is named as a salt. Where two headings read alike, the source gives them in different places.

Tests used:
Human MOR = molecular target: T1, Human MOR (Homo sapiens, UniProt P35372); assay: cell-based
T1 construct: expressed in transfected cells; host or cells: HEK-293T
Excerpt: (§1) Transfection. Human or mouse MOR cDNA was transfected alongside GαoB with RLuc8 inserted at position 91 (GαoB-RLuc8), Gβ1 (β1), and Gγ2 fused to the full-length mVenus at its N terminus (mVenus-γ2) into HEK-293T cells (5×10^6 cells/plate) in 10-cm dishes using PEI (Polysciences Inc.; Warrington, Pa.) in a 1:1 ratio diluted in Opti-MEM (Life Technologies Corp.; Grand Island, N.Y.) to assay for G protein activation as described previously (Rives, M.-L. et al. J. Biol. Chem. 2012, 287, 27050-4; Negri, A.; Rives, M.-L.; Caspers, M. J. et al. J. Chem. Inf. Model. 2013, 53, 521-526). Cells were maintained in the Dulbecco's Modified Eagle Medium (high glucose #11965; Life Technologies) supplemented with 10% FBS (Premium Select, Atlanta Biologicals; Atlanta, Ga.) and 100 U/mL penicillin and 100 μg/mL streptomycin (#15140, Life Technologies). After 24 hours the media was changed, and the experiment was performed 24 hours later (48 hours after transfection).
(§2) BRET. Transfected cells were dissociated and resuspended in phosphate-buffered saline (PBS). Approximately 200,000 cells/well were added to a black-framed, white well 96-well plate (#60050; Perkin Elmer; Waltham, Mass.). The microplate was centrifuged and the cells were resuspended in PBS. Then 5 μM of the luciferase substrate coelenterazine H was added to each well for 5 minutes. Following coelenterazine H addition, ligands were added and the BRET signal was measured at 5 minutes on a PHERAstar FS plate reader. Quantification of the BRET signal required calculating the ratio of the light emitted by the energy acceptor, mVenus (510-540 nm), over the light emitted by the energy donor, RLuc8 (485 nm). […] Dose response curves were fit using three-parameter logistics equation in GraphPad Prism 6.

Mouse MOR = molecular target: T2, Mouse MOR (Mus musculus, UniProt P42866); assay: BRET G protein activation assay, HEK-293T cells transfected with mouse MOR; type: cell-based
T2 construct: expressed in transfected cells; host or cells: HEK-293T
T2 sequence (P42866 whole entry): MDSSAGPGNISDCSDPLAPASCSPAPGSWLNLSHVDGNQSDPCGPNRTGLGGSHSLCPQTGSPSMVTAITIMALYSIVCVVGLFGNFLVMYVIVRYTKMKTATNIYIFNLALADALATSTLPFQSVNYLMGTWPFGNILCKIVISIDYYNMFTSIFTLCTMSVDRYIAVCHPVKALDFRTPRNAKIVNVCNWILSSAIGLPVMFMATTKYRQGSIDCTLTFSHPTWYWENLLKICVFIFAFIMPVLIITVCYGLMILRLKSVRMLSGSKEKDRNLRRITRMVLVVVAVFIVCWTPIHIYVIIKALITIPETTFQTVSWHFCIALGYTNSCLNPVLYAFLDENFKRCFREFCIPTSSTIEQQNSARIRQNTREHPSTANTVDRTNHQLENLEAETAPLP
Excerpt: as §1, §2

[1] = BRET G protein activation, HEK-293T, mean ± SEM of independent trials, read-out: EC50 Human MOR

T1 sequence (P35372 whole entry): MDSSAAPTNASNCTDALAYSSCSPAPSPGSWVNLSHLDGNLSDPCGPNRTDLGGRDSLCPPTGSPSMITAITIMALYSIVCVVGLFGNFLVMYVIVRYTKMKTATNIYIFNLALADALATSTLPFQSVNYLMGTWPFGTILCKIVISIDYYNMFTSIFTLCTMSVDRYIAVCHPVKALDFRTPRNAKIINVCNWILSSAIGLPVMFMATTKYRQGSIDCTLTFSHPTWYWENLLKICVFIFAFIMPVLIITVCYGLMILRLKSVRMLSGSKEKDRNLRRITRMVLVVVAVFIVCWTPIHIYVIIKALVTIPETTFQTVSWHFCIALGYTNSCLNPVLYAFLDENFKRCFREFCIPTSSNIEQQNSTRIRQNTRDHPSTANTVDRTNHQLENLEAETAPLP

SMILES | EC50 (Human MOR) [µM] | also measured
CN1c2ccccc2C(NCCCCC(=O)O)c2ccc(Cl)cc2S1(=O)=O (stereo not shown) [compound 18, 5-((3-Chloro-6-methyl-5,5-dioxido-6,11-dihydrodibenzo[c,f][1,2]thiazepin-11-yl)amino)pentanoic acid] | < 10 | EC50 (Mouse MOR): < 10 µM
COCC(C)CNC1c2ccccc2N(C)S(=O)(=O)c2cc(Cl)ccc21 (mixture of isomers) [compound 68, 3-Chloro-11-((3-methoxy-2-methylpropyl)amino)-6-methyl-6,11-dihydrodibenzo[c,f][1,2]thiazepine 5,5-dioxide] | < 10 | 
CCOC(=O)CCCCCCNC1c2ccccc2S(=O)(=O)N(C)c2ccsc21 (stereo not shown) [compound 6, Ethyl 7-((4-methyl-5,5-dioxido-4,10-dihydrobenzo[f]thieno[3,2-c][1,2]thiazepin-10-yl)amino) heptanoate] | < 10 | 
COCCCNC1c2ccccc2N(C)S(=O)(=O)c2ccc(Cl)cc21 (stereo not shown) [compound 60] | < 20 | 
COCCCNC1c2ccc(Br)cc2S(=O)(=O)N(C)c2ccsc21 (stereo not shown) [compound 72, 7-Bromo-10-((3-methoxypropyl)amino)-4-methyl-4,10-dihydrobenzo[f]thieno[3,2-c][1,2]thiazepine 5,5-dioxide] | < 10 | 
COCCCCCNC1c2ccccc2N(C)S(=O)(=O)c2cc(Cl)ccc21 (stereo not shown) [compound 32, 3-Chloro-11-((5-methoxypentyl)amino)-6-methyl-6,11-dihydrodibenzo [c,f][1,2]thiazepine 5,5-dioxide] | 0.563 ± 0.247 | 
CCOC(CCCNC1c2ccccc2N(C)S(=O)(=O)c2cc(Cl)ccc21)OCC (stereo not shown) [compound 24, 3-Chloro-11-((4,4-diethoxybutyl)amino)-6-methyl-6,11-dihydrodibenzo[c,f][1,2]thiazepine 5,5-dioxide] | < 10 | 
COCCCNC1c2cc(Br)ccc2N(C)S(=O)(=O)c2cc(Cl)ccc21 (stereo not shown) [compound 11] | < 10 | 
CN1c2ccccc2C(NCCOCCO)c2ccc(Cl)cc2S1(=O)=O (stereo not shown) [compound 25, 3-Chloro-11-((2-(2-hydroxyethoxy)ethyl)amino)-6-methyl-6,11-dihydrodibenzo[c,f][1,2]thiazepine 5,5-dioxide] | 8.59 ± 0.5 | 
CN1c2ccccc2C(NCCCO)c2ccc(Cl)cc2S1(=O)=O (stereo not shown) [compound 83, 3-Chloro-11-((3-hydroxypropyl)amino)-6-methyl-6,11-dihydrodibenzo[c,f][1,2] iazepine 5,5-dioxide] | 1.81 | 
Cc1ccc2c(c1)S(=O)(=O)N(C)c1ccccc1C2NCCCCCCC(=O)O (stereo not shown) [compound 16] | < 10 | 
CCOC(=O)CCCCCCNC1c2ccc(Br)cc2S(=O)(=O)N(C)c2ccsc21 (stereo not shown) [compound 74, Ethyl 7-((7-bromo-4-methyl-5,5-dioxido-4,10-dihydrobenzo[f]thieno[3,2-c][1,2]thiazepin-10-yl)amino)heptanoate] | < 10 | 
CCOC(=O)CCCCCCNC1c2ccccc2S(=O)(=O)N(C)c2c(OC)cccc21 (stereo not shown) [compound 51, Ethyl 7-((7-methoxy-6-methyl-5,5-dioxido-6,11-dihydrodibenzo[c,f][1,2]thiazepin-11-yl)amino)heptanoate] | < 10 | 
CCN1c2ccccc2C(NCCCOC)c2ccccc2S1(=O)=O (stereo not shown) [compound 65, 6-Ethyl-11-((3-methoxpropyl)amino)-6,11-dihydrodibenzo[c,f][1,2]thiazepine 5,5-dioxide] | > 20 | 
COCCCNC1c2ccccc2S(=O)(=O)N(C)c2c(OC)cccc21 (stereo not shown) [compound 50] | < 20 | 
COCCCNC1c2ccccc2N(C)S(=O)(=O)c2cc(C)ccc21 (stereo not shown) [compound 15, 11-((3-Methoxypropyl)amino)-3,6-dimethyl-6,11-dihydrodibenzo[c,f][1,2]thiazepine 5,5-dioxide] | < 10 | 
CN1c2ccccc2C(NCCCCCCC(=O)NCCO)c2ccc(Cl)cc2S1(=O)=O (stereo not shown) [compound 57, 7-((3-Chloro-6-methyl-5,5-dioxido-6,11-dihydrodibenzo [c,f][1,2]thiazepin-11-yl)amino)-N-(2-hydroxyethyl) heptanamide] | < 10 | 
COCCOCCNC1c2ccccc2N(C)S(=O)(=O)c2cc(Cl)ccc21 (stereo not shown) [compound 36, 3-Chloro-11-((2-(2-methoxyethoxy)ethyl)amino)-6-methyl-6,11-dihydrodibenzo[c,f][1,2]thiazepine 5,5-dioxide] | < 10 | 

SMILES | EC50 (Human MOR) [µM] | also measured
CN1c2ccccc2C(NCCCCCCC(=O)O)c2ccc(Br)cc2S1(=O)=O (stereo not shown) [compound 82, 7-((3-Bromo-6-methyl-5,5-dioxido-6,11-dihydrodibenzo[c,f][1,2]thiazepin-11-yl)amino)heptanoic acid hydrochloride salt] | 0.122 | 
COCCCCNC1c2ccccc2N(C)S(=O)(=O)c2cc(Cl)ccc21 (stereo not shown) [compound 39, 3-Chloro-11-((4-methoxybutyl)amino)-6-methyl-6,11-dihydrodibenzo [c,f][1,2]thiazepine 5,5-dioxide] | < 10 | 
CCOC(=O)CCCCCCNC1c2ccccc2N(C)S(=O)(=O)c2cc(I)ccc21 (stereo not shown) [compound 49, Ethyl 7-((3-iodo-6-methyl-5,5-dioxido-6,11-dihydrodibenzo[c,f][1,2]thiazepin-11-yl)amino)heptanoate] | 0.137 ± 0.017 | 
CN1c2ccccc2C(NCCCCCCC(N)=O)c2ccc(Cl)cc2S1(=O)=O (stereo not shown) [compound 52] | < 10 | 
COCCCNC1c2ccccc2S(=O)(=O)N(C)c2c(Br)csc21 (stereo not shown) [compound 43, 3-Bromo-10-((3-methoxypropyl)amino)-4-methyl-4,10-dihydrobenzo[f]thieno[3,2-c][1,2]thiazepine 5,5-dioxide] | < 20 | 
CCOCCCNC1c2ccccc2N(C)S(=O)(=O)c2cc(Cl)ccc21 (stereo not shown) [compound 37, 3-Chloro-11-((3-ethoxypropyl)amino)-6-methyl-6,11-dihydrodibenzo [c,f][1,2]thiazepine 5,5-dioxide] |  | EC50 (Human MOR; [1]): 0.893 ± 0.147 µM
CC(=O)OCCCCCCNC1c2ccccc2N(C)S(=O)(=O)c2cc(Cl)ccc21 (stereo not shown) [compound 13, 6-((3-Chloro-6-methyl-5,5-dioxido-6,11-dihydrodibenzo[c,f][1,2]thiazepin-11-yl)amino)hexyl acetate] | < 10 | 
CCOC(=O)CCCCCCNC1c2ccccc2N(C)S(=O)(=O)c2cc(Cl)ccc21 (stereo not shown) [compound 34, Ethyl 7-((3-chloro-6-methyl-5,5-dioxido-6,11-dihydrodibenzo[c,f][1,2]thiazepin-11-yl)amino)heptanoate] | 0.657 ± 0.366 | 
COCCCNC1c2ccccc2N(C)S(=O)(=O)c2ccccc21 (stereo not shown) [compound 10, 11-((3-Methoxypropyl)amino)-6-methyl-6,11-dihydrodibenzo[c,f][1,2]thiazepine 5,5-dioxide] | < 10 | 
CCOCCCNC1c2ccc(Br)cc2S(=O)(=O)N(C)c2ccsc21 (stereo not shown) [compound 73, 7-Bromo-10-((3-ethoxypropyl)amino)-4-methyl-4,10-dihydrobenzo[f]thieno[3,2-c][1,2]thiazepine 5,5-dioxide] | < 10 | 
CN1c2ccccc2C(NCC2CCOC2)c2ccc(Cl)cc2S1(=O)=O (stereo not shown) [compound 46] | < 10 | 
COCCCNC1c2ccccc2N(C)S(=O)(=O)c2cc(OCc3ccccc3)ccc21 (stereo not shown) [compound 75, 3-(Benzyloxy)-11-((3-methoxypropyl)amino)-6-methyl-6,11-dihydrodibenzo[c,f][1,2]thiazepine 5,5-dioxide] |  | EC50 (Human MOR; [1]): > 20 µM
CN1c2ccccc2C(NCCCC2OCCCO2)c2ccc(Cl)cc2S1(=O)=O (stereo not shown) [compound 31, 11-((3-(1,3-Dioxan-2-yl)propyl)amino)-3-chloro-6-methyl-6,11-dihydrodibenzo[c,f][1,2]thiazepine 5,5-dioxide] | < 10 | 
CSCCCNC1c2ccccc2N(C)S(=O)(=O)c2cc(Cl)ccc21 (stereo not shown) [compound 33, 3-Chloro-6-methyl-11-((3-(methylthio)propyl)amino)-6,11-dihydrodibenzo[c,f][1,2]thiazepine 5,5-dioxide] | < 10 | 
CCOC(=O)CCCCCCNC1c2ccccc2N(C)S(=O)(=O)c2cc(C)ccc21 (stereo not shown) [compound 14, Ethyl 7-((3,6-dimethyl-5,5-dioxido-6,11-dihydrodibenzo[c,f][1,2]thiazepin-11-yl)amino) heptanoate] | < 10 | 
CCOC(=O)CCCCCCNC1c2ccccc2N(C)S(=O)(=O)c2cc(F)ccc21 (stereo not shown) [compound 41, Ethyl 7-((3-fluoro-6-methyl-5,5-dioxido-6,11-dihydrodibenzo[c,f][1,2]thiazepin-11-yl)amino)heptanoate] | 2.04 ± 0.334 | 
CCOC(=O)CCCCCCNC1c2ccccc2N(C)S(=O)(=O)c2cc(Br)ccc21 (stereo not shown) [compound 81, Ethyl 7-((3-bromo-6-methyl-5,5-dioxido-6,11-dihydrodibenzo [c,f] [1,2]thiazepin-11-yl)amino)heptanoate] | 0.573 | 
COCCCNC1c2ccccc2N(C)S(=O)(=O)c2cc(-c3ccccc3)ccc21 (stereo not shown) [compound 56, 11-((3-Methoxypropyl)amino)-6-methyl-3-phenyl-6,11-dihydrodibenzo[c,f][1,2]thiazepine 5,5-dioxide] | < 10 | 
